# Molecular target: T1, recombinant human GST-Syk (Homo sapiens, UniProt P43405)
# T1 construct: purchased Carna Biosciences 08-176
# Test: Homogeneous Time-Resolved Fluorescence (HTRF) assay for the recombinant human Syk enzyme
# Format: biochemical
# Conditions: recombinant human GST-Syk 5 pM, ATP 25 μM, 10-dose titration 10 μM to 0.508 nM; read-out: rhSYK Activity IC50
# In short: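 GST-hSyk fusion protein phosphorylated a peptide for 45 min at room temperature. The reaction was quenched with 2 nM Eu-anti-phosphotyrosine antibody and 70 nM SA-APC in 15 mM Tris pH 7.5, 40 mM EDTA, 0.01% Tween 20. The HTRF signal was read after 30 min.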
row,IC50,Structure (SMILES)
1,12.5 nM,"Cc1cc(Nc2nccc(C(F)(F)F)n2)cc(-n2cc([C@]3(O)CC[C@@H](C(=O)O)CC3)nn2)c1 [Example 15.4, cis-4-hydroxy-4-[1-(3-methyl-5-{[4-(trifluoromethyl)pyrimidin-2-yl]amino}phenyl)-1H-1,2,3-triazol-4-yl]cyclohexanecarboxylic acid]"
2,3.3 nM,"Cc1cc(Nc2cc(C(F)(F)F)ccn2)nc(-c2cn(C3CCCCC(O)C3O)nn2)c1 (single isomer, unassigned) [Example 10.4, 3-[4-(4-methyl-6-{[4-(trifluoromethyl)pyridin-2-yl]amino}pyridin-2-yl)-1H-1,2,3-triazol-1-yl]cycloheptane-1,2-diol]"
3,1 nM,"Cc1cc(Nc2cc(C(F)(F)F)ccn2)nc(-c2cn(C3CCCCC(O)C3O)nn2)c1 (single isomer, unassigned) [Example 10.3, 3-[4-(4-methyl-6-{[4-(trifluoromethyl)pyridin-2-yl]amino}pyridin-2-yl)-1H-1,2,3-triazol-1-yl]cycloheptane-1,2-diol]"
4,1130 nM,Cc1cc(Nc2cc(C(F)(F)F)ccn2)nc(-c2cn(-c3ccc(Br)cn3)nn2)c1 [6.2]
5,32.3 nM,"Cc1cc(Nc2cc(C(F)(F)F)ccn2)nc(-c2cn(C3CNCC3O)nn2)c1 (racemic) [Example 19.1, (+/−)-(3S,4R)-4-(4-(4-Methyl-6-((4-(trifluoromethyl)pyridin-2-yl)amino)pyridin-2-yl)-1H-1,2,3-triazol-1-yl)pyrrolidin-3-ol]"
6,14.8 nM,Cc1cc(Nc2cc(C(F)(F)F)ccn2)nc(-c2cn(C[C@H](O)CC(N)=O)nn2)c1 [Example 12.1]
7,5.9 nM,"Cc1cc(Nc2cc(C(F)F)ccn2)nc(-c2cn(CC(C)(O)CO)nn2)c1 (stereo not drawn) [Example 21.40, 3-(4-(6-((4-(difluoromethyl)pyridin-2-yl)amino)-4-methylpyridin-2-yl)-1H-1,2,3-triazol-1-yl)-2-methylpropane-1,2-diol]"
8,191 nM,"Cc1cc(Nc2nccc(C)n2)cc(-c2cn(CC(C)(O)C(C)(C)O)nn2)c1 (stereo not drawn) [Example 21.21, 2,3-dimethyl-1-(4-{3-methyl-5-[(4-methylpyrimidin-2-yl)amino]phenyl}-1H-1,2,3-triazol-1-yl)butane-2,3-diol]"
9,328 nM,"Cc1cc(Nc2cc(C(F)(F)F)ccn2)nc(-c2nnc[nH]2)c1 [Example 16.2, 4-methyl-6-(4H-1,2,4-triazol-3-yl)-N-[4-(trifluoromethyl)pyridin-2-yl]pyridin-2-amine]"

# More lines, now with the values behind:
row,Structure (SMILES),IC50
1,"Cc1cc(Nc2cc(C(F)(F)F)ccn2)nc(-c2cn([C@H](C)C(=O)O)nn2)c1 [Example 5.29, (2R)-2-[4-(4-methyl-6-{[4-(trifluoromethyl)pyridin-2-yl]amino}pyridin-2-yl)-1H-1,2,3-triazol-1-yl]propanoic acid]",166 nM
2,"COC(=O)C1CCC(O)(Cn2cc(-c3cc(C)cc(Nc4nccc(C(F)(F)F)n4)c3)nn2)CC1(C)C (stereo not drawn) [Example 4.11, methyl 4-hydroxy-2,2-dimethyl-4-{[4-(3-methyl-5-{[4-(trifluoromethyl)pyrimidin-2-yl]amino}phenyl)-1H-1,2,3-triazol-1-yl]methyl}cyclohexanecarboxylate]",145 nM
3,"COC(=O)[C@@H]1CCCN1C(=O)[C@@H](C)n1cc(-c2cc(C)cc(Nc3cc(C(F)(F)F)ccn3)n2)nn1 [Example 1.55, methyl 1-{(2R)-2-[4-(4-methyl-6-{[4-(trifluoromethyl)pyridin-2-yl]amino}pyridin-2-yl)-1H-1,2,3-triazol-1-yl]propanoyl}prolinate]",449 nM
4,"Cc1cc(Nc2cc(C(F)(F)F)ccn2)nc(-c2cn(CCOC(N)=O)nn2)c1 [Example 5.110, 2-[4-(4-methyl-6-{[4-(trifluoromethyl)pyridin-2-yl]amino}pyridin-2-yl)-1H-1,2,3-triazol-1-yl]ethyl carbamate]",6.2 nM
5,"Cc1ccnc(Nc2cc(C)cc(-c3cn(C[C@@H](C)CO)nn3)n2)c1 [Example 5.15, (2R)-2-methyl-3-(4-{4-methyl-6-[(4-methylpyridin-2-yl)amino]pyridin-2-yl}-1H-1,2,3-triazol-1-yl)propan-1-ol]",240 nM
6,"Cc1cc(Nc2cc(C(F)(F)F)ccn2)nc(-c2cn(C3CNCC3O)nn2)c1 (stereo not drawn) [Example 4.15, 4-[4-(4-methyl-6-{[4-(trifluoromethyl)pyridin-2-yl]amino}pyridin-2-yl)-1H-1,2,3-triazol-1-yl]pyrrolidin-3-ol]",32.9 nM
7,"Cc1cc(Nc2cc(C(F)(F)F)ccn2)nc(-c2cn([C@H](C)C(=O)NCC(N)=O)nn2)c1 [Example 1.21, (2R)-N-(2-amino-2-oxoethyl)-2-[4-(4-methyl-6-{[4-(trifluoromethyl)pyridin-2-yl]amino}pyridin-2-yl)-1H-1,2,3-triazol-1-yl]propanamide]",23.1 nM
8,"Cc1cc(Nc2nccc(C(F)(F)F)n2)cc(-c2cn(CC3(O)CCOCC3)nn2)c1 [Example 4.14, 4-{[4-(3-methyl-5-{[4-(trifluoromethyl)pyrimidin-2-yl]amino}phenyl)-1H-1,2,3-triazol-1-yl]methyl}tetrahydro-2H-pyran-4-ol]",48.1 nM
9,"Cc1cc(Nc2nccc(C(F)(F)F)n2)cc(-c2cn(CCCO)nn2)c1 [Example 5.77, 3-[4-(3-methyl-5-{[4-(trifluoromethyl)pyrimidin-2-yl]amino}phenyl)-1H-1,2,3-triazol-1-yl]propan-1-ol]",50.7 nM
10,"Cc1cc(Nc2cc(C(F)(F)F)ccn2)nc(-c2cn(CC3(N)CC3)nn2)c1 [Example 5.112, 6-{1-[(1-aminocyclopropyl)methyl]-1H-1,2,3-triazol-4-yl}-4-methyl-N-[4-(trifluoromethyl)pyridin-2-yl]pyridin-2-amine]",17 nM
11,"Cc1cc(Nc2nccc(C(F)(F)F)n2)cc(-c2cn(CCC(N)=O)nn2)c1 [Example 5.75, 3-[4-(3-methyl-5-{[4-(trifluoromethyl)pyrimidin-2-yl]amino}phenyl)-1H-1,2,3-triazol-1-yl]propanamide]",31.6 nM
12,"Cc1cc(Nc2nccc(C(F)(F)F)n2)cc(-c2cn(CCCN)nn2)c1 [Example 5.48, N-{3-[1-(3-aminopropyl)-1H-1,2,3-triazol-4-yl]-5-methylphenyl}-4-(trifluoromethyl)pyrimidin-2-amine]",32.9 nM
13,"Cc1cc(Nc2cc(C(F)(F)F)ccn2)nc(-c2cn(CC3(O)CCS(=O)(=O)CC3)nn2)c1 [Example 4.29, 4-{[4-(4-methyl-6-{[4-(trifluoromethyl)pyridin-2-yl]amino}pyridin-2-yl)-1H-1,2,3-triazol-1-yl]methyl}tetrahydro-2H-thiopyran-4-ol 1,1-dioxide]",8.2 nM
14,"Cc1cc(Nc2cc(C(F)(F)F)ccn2)nc(-c2cn(C[C@H]3CCC(=O)N3)nn2)c1 [Example 5.3, (5R)-5-{[4-(4-methyl-6-{[4-(trifluoromethyl)pyridin-2-yl]amino}pyridin-2-yl)-1H-1,2,3-triazol-1-yl]methyl}pyrrolidin-2-one]",129 nM
15,"Cc1cc(Nc2cc(C(F)(F)F)ccn2)nc(-c2cn(Cc3c[nH]cn3)nn2)c1 [Example 5.108, 6-[1-(1H-imidazol-4-ylmethyl)-1H-1,2,3-triazol-4-yl]-4-methyl-N-[4-(trifluoromethyl)pyridin-2-yl]pyridin-2-amine]",2.5 nM
16,"Cc1cc(Nc2cc(C(F)(F)F)ccn2)nc(-c2cn(Cc3ccc(C(=O)O)cc3)nn2)c1 [Example 5.42, 4-{[4-(4-methyl-6-{[4-(trifluoromethyl)pyridin-2-yl]amino}pyridin-2-yl)-1H-1,2,3-triazol-1-yl]methyl}benzoic acid]",3.3 nM
17,"Cc1cc(Nc2nccc(C(F)(F)F)n2)cc(-c2cn(CC(O)CF)nn2)c1 (racemic) [Example 5.52, 1-fluoro-3-[4-(3-methyl-5-{[4-(trifluoromethyl)pyrimidin-2-yl]amino}phenyl)-1H-1,2,3-triazol-1-yl]propan-2-ol]",16.4 nM
18,"Cc1cc(Nc2cc(C(F)(F)F)ccn2)nc(-c2cn(CC(O)Cn3cccn3)nn2)c1 (stereo not drawn) [Example 4.28, 1-[4-(4-methyl-6-{[4-(trifluoromethyl)pyridin-2-yl]amino}pyridin-2-yl)-1H-1,2,3-triazol-1-yl]-3-(1H-pyrazol-1-yl)propan-2-ol]",6.6 nM
19,"COC(=O)C(C)n1cc(-c2cc(C)cc(Nc3cc(C(F)(F)F)ccn3)n2)nn1 (stereo not drawn) [Example 5.20, methyl 2-[4-(4-methyl-6-{[4-(trifluoromethyl)pyridin-2-yl]amino}pyridin-2-yl)-1H-1,2,3-thiazol-1-yl]propanoate]",24.1 nM
20,"Cc1cc(Nc2cc(C(F)(F)F)ccn2)nc(-c2cn(CC(O)CF)nn2)c1 (racemic) [Example 5.93, 1-fluoro-3-[4-(4-methyl-6-{[4-(trifluoromethyl)pyridin-2-yl]amino}pyridin-2-yl)-1H-1,2,3-triazol-1-yl]propan-2-ol]",6 nM
21,"Cc1cc(Nc2nccc(C(F)(F)F)n2)cc(-c2cn(Cc3ccc(C(=O)O)cc3)nn2)c1 [Example 5.21, 4-{[4-(3-methyl-5-{[4-(trifluoromethyl)pyrimidin-2-yl]amino}phenyl)-1H-1,2,3-triazol-1-yl]methyl}benzoic acid]",3.3 nM
22,"CCC(O)(CC)Cn1cc(-c2cc(C)cc(Nc3cc(C(F)(F)F)ccn3)n2)nn1 [Example 4.31, 3-{[4-(4-methyl-6-{[4-(trifluoromethyl)pyridin-2-yl]amino}pyridin-2-yl)-1H-1,2,3-triazol-1-yl]methyl}pentan-3-ol]",8.1 nM
23,Cc1cc(Nc2cc(C(F)(F)F)ccn2)nc(-c2cn(C(C)C(=O)NCCc3c[nH]c4ccccc34)nn2)c1 (stereo not drawn) [Example 1.29],124 nM
24,"Cc1cc(Nc2nccc(C(F)(F)F)n2)cc(-c2cn(C3CS(=O)(=O)CC3O)nn2)c1 (stereo not drawn) [Example 5.63, 4-[4-(3-methyl-5-{[4-(trifluoromethyl)pyrimidin-2-yl]amino}phenyl)-1H-1,2,3-triazol-1-yl]tetrahydrothiophene-3-ol 1,1-dioxide]",24.1 nM
